Data as given in the supplement of paper PMC10307832.

Legend:
Assay in all cases: relative viability (nuclei count vs DMSO), 5 days (fraction); higher = more cells survive
17-AAG + Bortezomib = compound: C=CCNC1=C2C[C@@H](C)C[C@H](OC)[C@H](O)[C@@H](C)/C=C(\C)[C@H](OC(N)=O)[C@@H](OC)/C=C\C=C(/C)C(=O)NC(=CC1=O)C2=O [17-AAG] + CC(C)C[C@H](NC(=O)[C@H](Cc1ccccc1)NC(=O)c1cnccn1)B(O)O [Bortezomib] (partner 0.002 µM)
Outline: (§1)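 Cells from lung cancer lines were seeded into 1536-well plates and, one day later, dosed by pin tool. Treatments were either a single drug or a fixed dose of an anchor drug with five library-drug doses (not always all listed) in √10 steps. After 5 days, nuclei were stained in a one-step fixation (final 0.05% Triton X-100, 1% formaldehyde, 1 ug/ml Hoechst) and counted on 4× images, and relative viability is the treated-to-vehicle nuclei ratio, as the median of duplicate plates.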

17-AAG + Luminespib = compound: C=CCNC1=C2C[C@@H](C)C[C@H](OC)[C@H](O)[C@@H](C)/C=C(\C)[C@H](OC(N)=O)[C@@H](OC)/C=C\C=C(/C)C(=O)NC(=CC1=O)C2=O [17-AAG] + CCNC(=O)c1noc(-c2cc(C(C)C)c(O)cc2O)c1-c1ccc(CN2CCOCC2)cc1 [Luminespib] (partner 0.01 µM)
Outline: as §1

17-AAG + Palbociclib = compound: C=CCNC1=C2C[C@@H](C)C[C@H](OC)[C@H](O)[C@@H](C)/C=C(\C)[C@H](OC(N)=O)[C@@H](OC)/C=C\C=C(/C)C(=O)NC(=CC1=O)C2=O [17-AAG] + CC(=O)c1c(C)c2cnc(Nc3ccc(N4CCNCC4)cn3)nc2n(C2CCCC2)c1=O [Palbociclib] (partner 0.5 µM)
Outline: as §1

17-AAG + Dasatinib = compound: C=CCNC1=C2C[C@@H](C)C[C@H](OC)[C@H](O)[C@@H](C)/C=C(\C)[C@H](OC(N)=O)[C@@H](OC)/C=C\C=C(/C)C(=O)NC(=CC1=O)C2=O [17-AAG] + Cc1nc(Nc2ncc(C(=O)Nc3c(C)cccc3Cl)s2)cc(N2CCN(CCO)CC2)n1 [Dasatinib] (partner 0.075 µM)
Outline: as §1

| Cell Line | relative viability (17-AAG + Bortezomib; first compound 0.00128 µM) | relative viability (17-AAG + Bortezomib; first compound 0.004048 µM) | relative viability (17-AAG + Bortezomib; first compound 0.0128 µM) | relative viability (17-AAG + Bortezomib; first compound 0.04048 µM) | relative viability (17-AAG + Bortezomib; first compound 0.128 µM) | relative viability (17-AAG + Luminespib; first compound 0.00128 µM) | relative viability (17-AAG + Luminespib; first compound 0.004048 µM) | relative viability (17-AAG + Luminespib; first compound 0.0128 µM) | relative viability (17-AAG + Luminespib; first compound 0.04048 µM) | relative viability (17-AAG + Luminespib; first compound 0.128 µM) | relative viability (17-AAG + Palbociclib; first compound 0.00128 µM) | relative viability (17-AAG + Palbociclib; first compound 0.004048 µM) | relative viability (17-AAG + Palbociclib; first compound 0.0128 µM) | relative viability (17-AAG + Palbociclib; first compound 0.04048 µM) | relative viability (17-AAG + Palbociclib; first compound 0.128 µM) | relative viability (17-AAG + Dasatinib; first compound 0.00128 µM) | relative viability (17-AAG + Dasatinib; first compound 0.004048 µM) | relative viability (17-AAG + Dasatinib; first compound 0.0128 µM) | relative viability (17-AAG + Dasatinib; first compound 0.04048 µM) | relative viability (17-AAG + Dasatinib; first compound 0.128 µM) |
| --- | --- | --- | --- | --- | --- | --- | --- | --- | --- | --- | --- | --- | --- | --- | --- | --- | --- | --- | --- | --- |
| COR-L 105 | 0.548 | 0.729 | 0.746 | 0.581 | 0.507 | 0.858 | 0.708 | 0.671 | 0.432 | 0.224 | 0.431 | 0.389 | 0.406 | 0.356 | 0.384 | 0.388 | 0.306 | 0.356 | 0.202 | 0.263 |
| LK-2 | – | – | – | – | – | 0.201 | 0.162 | 0.181 | 0.17 | 0.177 | 0.849 | 0.64 | 0.644 | 0.236 | 0.0922 | 0.285 | 0.396 | 0.224 | 0.157 | 0.116 |
| NCI-H838 | 0.962 | 0.653 | 0.124 | 0.136 | 0.0816 | 0.192 | 0.196 | 0.151 | 0.157 | 0.12 | 0.234 | 0.209 | 0.133 | 0.14 | 0.129 | 0.291 | 0.269 | 0.203 | 0.186 | 0.2 |
| SK-LU-1 | 0.976 | 0.903 | 0.311 | 0.238 | 0.197 | 0.215 | 0.174 | 0.176 | 0.177 | 0.15 | 0.441 | 0.469 | 0.295 | 0.272 | 0.204 | 0.154 | 0.0796 | 0.0621 | 0.0687 | 0.0526 |
| NCI-H2023 | 0.886 | 0.878 | 0.138 | 0.0901 | 0.0776 | 0.52 | 0.25 | 0.228 | 0.0785 | 0.0689 | 0.374 | 0.195 | 0.102 | 0.0665 | 0.0605 | 0.572 | 0.281 | 0.0632 | 0.0704 | 0.059 |
| NCI-H441 | 0.506 | 0.395 | 0.199 | 0.181 | 0.14 | 0.278 | 0.197 | 0.196 | 0.181 | 0.17 | 0.283 | 0.166 | 0.108 | 0.116 | 0.107 | 0.587 | 0.45 | 0.129 | 0.122 | 0.127 |
| NCI-H1666 | 0.78 | 0.687 | 0.244 | 0.228 | 0.171 | 1 | 0.86 | 0.474 | 0.296 | 0.342 | 0.618 | 0.672 | 0.609 | 0.519 | 0.526 | 0.783 | 0.718 | 0.309 | 0.35 | 0.295 |
| NCI-H1648 | – | – | – | – | – | – | – | – | – | – | – | 0.348 | 0.32 | 0.431 | 0.387 | – | – | – | – | – |
| NCI-H2087 | 0.85 | 0.674 | 0.377 | 0.215 | 0.137 | 0.17 | 0.158 | 0.159 | 0.131 | 0.0988 | 0.315 | 0.179 | 0.185 | 0.0984 | 0.108 | 0.872 | 0.49 | 0.0992 | 0.13 | 0.0882 |
| LU99A | 1.06 | 1.05 | 0.672 | 0.445 | 0.119 | 0.239 | 0.201 | 0.213 | 0.169 | 0.146 | 0.434 | 0.42 | 0.384 | 0.454 | 0.137 | 0.508 | 0.387 | 0.283 | 0.13 | 0.0659 |
| HCC-366 | 0.949 | 0.785 | 0.0604 | 0.0267 | 0.0245 | – | – | – | – | – | 0.415 | 0.361 | 0.126 | 0.0306 | 0.031 | 0.726 | 0.654 | 0.0387 | 0.0326 | 0.0293 |
| EKVX | 1.06 | 0.971 | 0.994 | 0.421 | 0.149 | 0.879 | 0.857 | 0.742 | 0.187 | 0.13 | 0.357 | 0.391 | 0.363 | 0.152 | 0.127 | 0.414 | 0.542 | 0.472 | 0.343 | 0.229 |
| NCI-H522 | – | – | – | – | – | 0.902 | 1.03 | 0.948 | 1.02 | 0.451 | 1.02 | 1.15 | 0.896 | 0.647 | 0.419 | 0.822 | 0.799 | 0.77 | 0.632 | 0.443 |
| NCI-H1755 | 0.966 | 0.9 | 0.817 | 0.391 | 0.189 | 0.479 | 0.444 | 0.364 | 0.273 | 0.223 | 0.435 | 0.443 | 0.471 | 0.425 | 0.33 | 0.478 | 0.401 | 0.324 | 0.213 | 0.118 |
| NCI-H650 | 0.78 | 0.99 | 0.669 | 0.236 | 0.204 | 0.884 | 0.601 | 0.607 | 0.386 | 0.171 | 0.325 | 0.356 | 0.371 | 0.339 | 0.161 | 0.427 | 0.468 | 0.4 | 0.256 | 0.136 |
| LC-2-ad | 0.97 | 1.05 | 0.665 | 0.119 | 0.105 | 0.949 | 0.83 | 0.305 | 0.302 | 0.258 | 0.553 | 0.53 | 0.494 | 0.486 | 0.172 | 0.546 | 0.418 | 0.18 | 0.198 | 0.12 |
| NCI-H1793 | – | – | – | – | – | 0.191 | 0.149 | 0.136 | 0.16 | 0.169 | 0.345 | 0.295 | 0.208 | 0.14 | 0.17 | 0.437 | 0.243 | 0.14 | 0.122 | 0.129 |
